Source: paper PMC10303012, “Volatile Short-Chain Aliphatic Aldehydes Act as Taste Modulators through the Orally Expressed Calcium-Sensing Receptor CaSR” (Molecules, 2023)

Legend:
Format in all cases: cell-based
[1] = target: T1, calcium-sensing receptor CaSR (Homo sapiens, UniProt P41180); assay: calcium mobilization assay in PEAKrapid cells transiently expressing human CaSR, with mock control
T1 sequence (P41180 20-1078): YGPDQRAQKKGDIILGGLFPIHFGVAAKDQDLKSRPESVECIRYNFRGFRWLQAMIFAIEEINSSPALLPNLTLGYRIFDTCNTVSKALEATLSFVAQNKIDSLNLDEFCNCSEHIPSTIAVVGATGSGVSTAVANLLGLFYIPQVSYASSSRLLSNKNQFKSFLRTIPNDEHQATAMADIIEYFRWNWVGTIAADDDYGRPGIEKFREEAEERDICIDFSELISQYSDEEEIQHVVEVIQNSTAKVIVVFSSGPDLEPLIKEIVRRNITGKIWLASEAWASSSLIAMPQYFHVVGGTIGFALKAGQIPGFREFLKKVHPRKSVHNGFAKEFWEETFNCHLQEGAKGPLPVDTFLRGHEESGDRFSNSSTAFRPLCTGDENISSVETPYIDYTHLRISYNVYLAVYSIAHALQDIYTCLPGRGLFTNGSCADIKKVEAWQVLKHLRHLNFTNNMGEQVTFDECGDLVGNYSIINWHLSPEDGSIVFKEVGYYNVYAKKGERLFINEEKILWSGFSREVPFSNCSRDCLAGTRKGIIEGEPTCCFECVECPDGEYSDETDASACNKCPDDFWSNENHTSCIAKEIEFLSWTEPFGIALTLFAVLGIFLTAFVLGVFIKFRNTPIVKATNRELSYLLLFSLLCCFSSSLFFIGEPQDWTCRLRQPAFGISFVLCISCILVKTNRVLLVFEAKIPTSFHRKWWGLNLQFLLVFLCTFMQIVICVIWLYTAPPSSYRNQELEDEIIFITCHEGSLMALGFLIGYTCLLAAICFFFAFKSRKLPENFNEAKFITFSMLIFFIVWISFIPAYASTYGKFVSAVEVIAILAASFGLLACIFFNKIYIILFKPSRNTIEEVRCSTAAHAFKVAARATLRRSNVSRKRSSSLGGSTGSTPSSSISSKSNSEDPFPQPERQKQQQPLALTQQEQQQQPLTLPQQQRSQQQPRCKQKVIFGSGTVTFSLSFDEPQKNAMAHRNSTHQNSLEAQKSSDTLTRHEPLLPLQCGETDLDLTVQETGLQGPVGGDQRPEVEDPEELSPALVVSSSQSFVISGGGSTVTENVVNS

[2] = target: T1, calcium-sensing receptor CaSR; assay: as above; remark: listed apart in the source
[3] = target: T1, calcium-sensing receptor CaSR; assay: calcium mobilization assay in PEAKrapid cells transiently expressing human CaSR; potentiation of CaCl2 response at […]

Row | SMILES | calcium mobilization assay in PEAKrapid cells transiently expressing human CaSR, [1] | other results
1 | CCCCC=O [pentanal] | 2-methylbutylaldehyde (D,I), pentanal (E,I), hexanal (F,I) | 
2 | CCCC=O [butanal] | CaSR was activated by propionaldehyde (A,I), butanal (B,I) | 
3 | CCC=O [propionaldehyde] | CaSR was activated by propionaldehyde (A,I) | 
4 | CC(C)CC=O [IVAH, isovaleraldehyde] |  | EC50 [2]: 681 µM
5 | CSCCC=O [MTN, methional] |  | calcium mobilization assay in PEAKrapid cells transiently expressing human CaSR, [3]: only methional activated CaSR, while neither of the methional analogues tested activated CaSR
6 | CC(C)C=O [isobutylaldehyde] | CaSR was activated by propionaldehyde (A,I), butanal (B,I), isobutylaldehyde (C,I) | 
7 | CCCCCC=O [hexanal] | 2-methylbutylaldehyde (D,I), pentanal (E,I), hexanal (F,I) | 
8 | CCC(C)C=O (centres unmarked) [2-methylbutylaldehyde] | CaSR was activated by propionaldehyde (A,I), butanal (B,I), isobutylaldehyde (C,I), 2-methylbutylaldehyde (D,I) | 
